# Assay results reported in patent US8987474B2 (University of South Florida, priority 2006, dated 2015).
# Target: Shp2 (Homo sapiens (Human), UniProt Q06124)
# Assay: PTP activity assay (DiFMUP substrate) with GST-Shp2
# Assay type: biochemical
# Conditions: Table II, Shp2
# Text: All constructs were verified by DNA sequencing.
# Recombinant DEP1 was from Abcam.
# Sequence of Shp2 (Q06124 205-593): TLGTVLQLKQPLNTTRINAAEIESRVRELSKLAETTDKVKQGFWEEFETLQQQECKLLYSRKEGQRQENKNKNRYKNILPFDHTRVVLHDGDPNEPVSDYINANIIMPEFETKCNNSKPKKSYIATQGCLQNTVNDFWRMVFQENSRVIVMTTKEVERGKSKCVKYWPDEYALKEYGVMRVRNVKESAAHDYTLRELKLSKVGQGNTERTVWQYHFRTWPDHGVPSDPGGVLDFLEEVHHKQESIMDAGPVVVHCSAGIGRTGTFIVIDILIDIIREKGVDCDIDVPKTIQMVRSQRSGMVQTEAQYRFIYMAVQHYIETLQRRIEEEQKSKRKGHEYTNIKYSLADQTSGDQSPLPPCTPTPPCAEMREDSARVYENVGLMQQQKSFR
row,SMILES,IC50 [µM]
1,O=C1Nc2ccccc2/C1=N/Nc1ccccc1[N+](=O)[O-] [HL1-047],33 to 100
2,O=C1Nc2ccccc2/C1=N/Nc1ccccc1Cl [HL1-050-1],33 to 100
3,O=C1Nc2ccc(S(=O)(=O)O)cc2/C1=N/Nc1ccccc1Cl [HL1-058-1],33 to 100
4,O=C1Nc2ccc(S(=O)(=O)O)cc2/C1=N/Nc1cccc([N+](=O)[O-])c1 [HL1-058-2],33 to 100
5,O=C1Nc2ccc(S(=O)(=O)O)cc2/C1=N/Nc1nc2ccccc2s1 [HL1-058-3],33 to 100
6,COC(=O)c1cc(NC(=O)c2ccc3cc(C(=O)OC)ccc3c2)cc(C(=O)OC)c1 [HL2-026-Intermediate],33 to 100
7,"CN(C)S(=O)(=O)c1ccc2c(c1)/C(=N/Nc1ccccc1[N+](=O)[O-])C(=O)N2 [RPM124, 3-[(2-Nitrophenyl)hydrazono]-2-oxo-2,3-dihydro-1H-indole-5-sulfonic acid dimethylamide]",33 to 100
8,"O=C1Nc2ccc(S(=O)(=O)NCc3ccccn3)cc2/C1=N/Nc1ccccc1[N+](=O)[O-] [RPM135, 3-[(2-Nitrophenyl)hydrazono]-2-oxo-2,3-dihydro-1H-indole-5-sulfonic acid (pyridin-2-ylmethyl)amide]",33 to 100

# Same assay, conditions: at 20 μM
row,SMILES,% PTP activity
1,O=C1Nc2ccc(C(=O)O)cc2/C1=N/Nc1ccccc1[N+](=O)[O-] [HL2-054],60.57% (1) at 20 μM
2,CCN(CC)C(=O)c1ccc2c(c1)/C(=N/Nc1ccccc1C(=O)O)C(=O)N2 [HL2-070-1],100.18% (1) at 20 μM
3,CCN(CC)C(=O)c1ccc2c(c1)/C(=N/Nc1cccc(C(=O)O)c1)C(=O)N2 [HL2-070-2],57.16% (1) at 20 μM
4,CCN(CC)C(=O)c1ccc2c(c1)/C(=N/Nc1ccccc1[N+](=O)[O-])C(=O)N2 [HL2-070-3],14 ± 2% (2) at 20 μM
5,O=C1Nc2ccc(C(=O)NCc3ccc(Cl)cc3)cc2/C1=N/Nc1ccccc1C(=O)O [HL2-070-4],30 ± 4% (2) at 20 μM
6,CC(C)NC(=O)c1ccc2c(c1)/C(=N/Nc1ccccc1C(=O)O)C(=O)N2 [HL2-070-6],78.87% (1) at 20 μM
7,CC(C)NC(=O)c1ccc2c(c1)/C(=N/Nc1cccc(C(=O)O)c1)C(=O)N2 [HL2-070-7],53.62% (1) at 20 μM
8,O=C1Nc2ccc(C(=O)NCc3ccc(Cl)cc3)cc2/C1=N/Nc1cccc(C(=O)O)c1 [HL2-070-9],25 ± 2% (2) at 20 μM

# Same assay, conditions: concentration not given
row,SMILES,% PTP activity
1,O=C1Nc2ccccc2/C1=N/Nc1ccccc1[N+](=O)[O-] [HL1-047],93 ± 9% (3)
2,O=C1Nc2ccccc2/C1=N/Nc1ccccc1Cl [HL1-050-1],99 ± 2% (3)
3,O=C1Nc2ccccc2/C1=N/Nc1cccc([N+](=O)[O-])c1 [HL1-050-2],32 ± 3% (3)
4,O=C1Nc2ccc(S(=O)(=O)O)cc2/C1=N/Nc1ccccc1Cl [HL1-058-1],69 ± 9% (2)
5,O=C1Nc2ccc(S(=O)(=O)O)cc2/C1=N/Nc1cccc([N+](=O)[O-])c1 [HL1-058-2],73 ± 7% (3)
6,O=C1Nc2ccc(S(=O)(=O)O)cc2/C1=N/Nc1nc2ccccc2s1 [HL1-058-3],46 ± 4% (3)
7,CN(C)S(=O)(=O)c1ccc2c(c1)/C(=N/Nc1ccccc1Cl)C(=O)N2 [HL2-016-1],36 ± 11% (12)
8,COc1ccc(CNS(=O)(=O)c2ccc3c(c2)/C(=N/Nc2ccccc2Cl)C(=O)N3)cc1 [HL2-016-3],84 ± 24% (6)
9,O=C1Nc2ccc(S(=O)(=O)NCc3ccc(Cl)cc3)cc2/C1=N/Nc1ccccc1Cl [HL2-016-4],32 ± 17% (12)
10,COc1cccc(CNS(=O)(=O)c2ccc3c(c2)/C(=N/Nc2ccccc2Cl)C(=O)N3)c1 [HL2-016-5],51 ± 4% (6)
11,O=C1Nc2ccc(S(=O)(=O)NCc3cccs3)cc2/C1=N/Nc1ccccc1Cl [HL2-016-6],51 ± 3% (6)
12,O=C1Nc2ccc(S(=O)(=O)NCc3ccccn3)cc2/C1=N/Nc1ccccc1Cl [HL2-016-7],41 ± 23% (12)
13,O=C1Nc2ccc(S(=O)(=O)NCN3CCOCC3)cc2/C1=N/Nc1ccccc1Cl [HL2-016-8],41 ± 4% (6)
14,CCCNS(=O)(=O)c1ccc2c(c1)/C(=N/Nc1ccccc1Cl)C(=O)N2 [HL2-016-9],48 ± 1% (6)
15,CC(C)CNS(=O)(=O)c1ccc2c(c1)/C(=N/Nc1ccccc1Cl)C(=O)N2 [HL2-016-10],36 ± 17 (12) %
16,O=C1Nc2ccc(S(=O)(=O)NCc3ccco3)cc2/C1=N/Nc1ccccc1Cl [HL2-016-11],55 ± 7% (6)
17,COCCNS(=O)(=O)c1ccc2c(c1)/C(=N/Nc1ccccc1Cl)C(=O)N2 [HL2-016-12],32 ± 3% (6)
18,CCC(C)NS(=O)(=O)c1ccc2c(c1)/C(=N/Nc1ccccc1Cl)C(=O)N2 (stereo not drawn) [HL2-016-13],35 ± 4% (6)
19,O=C1Nc2ccc(S(=O)(=O)NCC3CCCO3)cc2/C1=N/Nc1ccccc1Cl (stereo not drawn) [HL2-016-14],42 ± 5% (6)

row,SMILES,% PTP activity
1,O=C1Nc2ccc(S(=O)(=O)NCc3ccncc3)cc2/C1=N/Nc1ccccc1Cl [HL2-016-15],48 ± 5% (6)
2,CN(Cc1ccccc1)S(=O)(=O)c1ccc2c(c1)/C(=N/Nc1ccccc1Cl)C(=O)N2 [HL2-016-16],64 ± 12% (6)
3,O=C1Nc2ccc(S(=O)(=O)NCc3cccnc3)cc2/C1=N/Nc1ccccc1Cl [HL2-016-18],78 ± 10% (6)
4,CN(C)CCNS(=O)(=O)c1ccc2c(c1)/C(=N/Nc1ccccc1Cl)C(=O)N2 [HL2-016-19],89 ± 3% (6)
5,O=C1Nc2ccc(S(=O)(=O)NCc3cccnc3)cc2/C1=N/Nc1ccccc1[N+](=O)[O-] [HL2-016-20],68 ± 8% (6)
6,CN(C)CCCNS(=O)(=O)c1ccc2c(c1)/C(=N/Nc1ccccc1[N+](=O)[O-])C(=O)N2 [HL2-016-21],77 ± 2% (6)
7,CN(C)CCCNS(=O)(=O)c1ccc2c(c1)/C(=N/Nc1ccccc1Cl)C(=O)N2 [HL2-016-22],80 ± 0.7% (6)
8,NS(=O)(=O)c1ccc2c(c1)/C(=N/Nc1ccccc1Cl)C(=O)N2 [HL2-016.2],40 ± 8% (12)
9,CCOC(=O)c1cccc(NC(=O)c2ccc3cc(C(=O)OC)ccc3c2)c1 [HL2-022-1-Intermediate],68 ± 20% (7)
10,O=C(O)c1cccc(NC(=O)c2ccc3cc(C(=O)O)ccc3c2)c1 [HL2-022-1],53 ± 4% (6)
11,O=C(O)c1ccc2cc(C(=O)Nc3cccc(S(=O)(=O)O)c3)ccc2c1 [HL2-022-2],52 ± 17% (5)
12,COC(=O)c1cc(NC(=O)c2ccc3cc(C(=O)OC)ccc3c2)cc(C(=O)OC)c1 [HL2-026-Intermediate],40 ± 4% (6)
13,O=C(O)c1cc(NC(=O)c2ccc3cc(C(=O)O)ccc3c2)cc(C(=O)O)c1 [HL2-026],87 ± 14% (6)
14,"O=C1C=CC2C(=C1O)Oc1c(ccc(O)c1O)C2C1CCCCC1C(=O)O (stereo not drawn) [NSC-119910, reference compound]",0.56 ± 0.1% (3)
15,"CN(C)S(=O)(=O)c1ccc2c(c1)/C(=N/Nc1ccccc1[N+](=O)[O-])C(=O)N2 [RPM124, 3-[(2-Nitrophenyl)hydrazono]-2-oxo-2,3-dihydro-1H-indole-5-sulfonic acid dimethylamide]",52 ± 5% (6)
16,"O=C1Nc2ccc(S(=O)(=O)NCc3ccccn3)cc2/C1=N/Nc1ccccc1[N+](=O)[O-] [RPM135, 3-[(2-Nitrophenyl)hydrazono]-2-oxo-2,3-dihydro-1H-indole-5-sulfonic acid (pyridin-2-ylmethyl)amide]",47 ± 10% (12)
17,"CN(Cc1ccccc1)S(=O)(=O)c1ccc2c(c1)/C(=N/Nc1ccccc1[N+](=O)[O-])C(=O)N2 [RPM136, 3-[(2-Nitrophenyl)hydrazono]-2-oxo-2,3-dihydro-1H-indole-5-sulfonic acid benzyl-methylamide]",39 ± 8% (12)
18,"COc1cccc(CNS(=O)(=O)c2ccc3c(c2)/C(=N/Nc2ccccc2[N+](=O)[O-])C(=O)N3)c1 [RPM137, 3-[(2-Nitrophenyl)hydrazono]-2-oxo-2,3-dihydro-1H-indole-5-sulfonic acid 3-methoxybenzylamide]",31 ± 4% (12)
19,"COc1ccc(CNS(=O)(=O)c2ccc3c(c2)/C(=N/Nc2ccccc2[N+](=O)[O-])C(=O)N3)cc1 [RPM138, 3-[(2-Nitrophenyl)hydrazono]-2-oxo-2,3-dihydro-1H-indole-5-sulfonic acid 4-methoxybenzylamide]",36 ± 4% (6)
